The values below come from US12637467B2, “Inhibitor of BTK and mutants thereof” (Newave Pharmaceutical Inc., priority 2019, dated 2026).

“Also recorded” adds a separate entry of the source.

Series [1] deals with T1, WT BTK (Homo sapiens, UniProt Q06187). Kind of series: In vitro dialysis assay (irreversibility assay), WT BTK. The class given is biochemical. To be noted: for Conclusion (WT BTK): reversible or irreversible inhibition after 24 hr dialysis. On the procedure:
(§1) The compound-enzyme complex was dialyzed against the same buffer supplemented with 40 mM ATP for 24 hr. Cumulative dialysis factor >160,000×. After dialysis, the BTK activity was measured in the presence 40 mM ATP and 1 mM substrate peptide and compared to that in non-dialyzed samples. Assay buffer: 100 mM HEPES, pH7.5; 0.1% BSA, 0.01% Triton-X 100; 5 mM MgCl2; 1 mM DTT.

The target in series [2] is T2, C481S BTK (Homo sapiens, UniProt Q06187, C481S). Kind of series: Reversibility of binding to C481S BTK enzyme. To be noted: cysteine not available for covalent binding. It counts as biochemical. On the procedure:
as §1

Series [3] concerns the target T1, WT BTK. Kind of series: Caliper-based kinase assay, WT BTK. It counts as biochemical. To be noted: 0.5 nM enzyme, 16 μM ATP, 3 h at room temperature; read-out: WT BTK IC50 (nM) (irreversible inhibition). As to the method:
(§2) The reaction was then terminated with EDTA, final concentration 20 mM and the phosphorylated reaction product was quantified on a Caliper Desktop Profiler (Caliper LabChip 3000).

Series [4] addresses T2, C481S BTK. Kind of series: Caliper-based kinase assay, C481S BTK. The settings on record: 0.5 nM enzyme, 16 μM ATP, 3 h at room temperature; read-out: C481S BTK IC50 (nM) (reversible inhibition). It counts as biochemical. On the procedure:
as §2

For series [5] the following is noted: rats, treatment for longer than 7 days; cited from earlier work.
For series [6] the following is noted: formulations containing GDC-0853, Phase I clinical trials; cited from earlier work.

T2 sequence (Q06187 whole entry C481S): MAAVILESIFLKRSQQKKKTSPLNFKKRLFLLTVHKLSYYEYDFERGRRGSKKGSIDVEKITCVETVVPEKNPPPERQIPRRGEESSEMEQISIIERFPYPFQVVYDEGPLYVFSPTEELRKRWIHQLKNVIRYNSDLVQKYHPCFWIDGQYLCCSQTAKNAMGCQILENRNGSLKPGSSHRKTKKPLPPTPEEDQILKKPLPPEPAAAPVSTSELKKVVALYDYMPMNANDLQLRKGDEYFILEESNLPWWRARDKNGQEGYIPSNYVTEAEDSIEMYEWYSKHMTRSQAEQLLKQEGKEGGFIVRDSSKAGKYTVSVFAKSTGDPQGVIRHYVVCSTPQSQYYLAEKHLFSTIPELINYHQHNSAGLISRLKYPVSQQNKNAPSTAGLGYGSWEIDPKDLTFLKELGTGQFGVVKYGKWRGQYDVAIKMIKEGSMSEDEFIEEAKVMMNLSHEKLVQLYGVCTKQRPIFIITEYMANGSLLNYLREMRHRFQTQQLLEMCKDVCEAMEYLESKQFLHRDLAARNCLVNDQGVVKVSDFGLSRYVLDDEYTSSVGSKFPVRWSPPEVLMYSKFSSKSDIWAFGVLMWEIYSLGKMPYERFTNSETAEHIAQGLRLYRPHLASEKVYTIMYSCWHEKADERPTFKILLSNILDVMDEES
T1 sequence (Q06187 whole entry): as the sequence (Q06187 whole entry C481S) above, with S481C counted along it

Turning to `C=CC(=O)Nc1cc(Nc2nc(-c3ccnc(N4CCn5c(cc6c5CC(C)(C)C6)C4=O)c3CO)cn(C)c2=O)ccc1N1CCN(C)CC1` [Example 2, N-(5-((6-(2-(7,7-dimethyl-1-oxo-1,3,4,6,7,8-hexahydro-2H-cyclopenta[4,5]pyrrolo[1,2-a]pyrazin-2-yl)-3-(hydroxymethyl)pyridin-4-yl)-4-methyl-3-oxo-3,4-dihydropyrazin-2-yl)amino)-2-(4-methylpiperazin-1-yl)phenyl)acrylamide], the “Conclusion (WT BTK)” value at WT BTK [1] is reported as “irreversible inhibitors; also recorded: Irreversible/covalent inhibition”. The “Mode of binding to C481S BTK” value on C481S BTK [2] is “reversibly bind”.
Usually IC50 stands for the concentration needed to halve the response being measured. In the case of `C=CC(=O)Nc1cc(Nc2nc(-c3ccnc(N4CCn5c(cc6c5CC(C)(C)C6)C4=O)c3C(F)(F)F)cn(C)c2=O)ccc1N1CCN(C2COC2)C[C@@H]1C` [Example 28, (S)—N-(5-((6-(2-(7,7-dimethyl-1-oxo-1,3,4,6,7,8-hexahydro-2H-cyclopenta[4,5]pyrrolo[1,2-a]pyrazin-2-yl)-3-(trifluoromethyl)pyridin-4-yl)-4-methyl-3-oxo-3,4-dihydropyrazin-2-yl)amino)-2-(2-methyl-4-(oxetan-3-yl)piperazin-1-yl)phenyl)acrylamide], the values for the IC50 on WT BTK [3] and at C481S BTK [4] were > 100 nM and > 1000 nM, respectively.
Take `C=CC(=O)Nc1cc(Nc2nc(-c3ccnc(N4CCc5cccnc5C4=O)c3CO)cn(C)c2=O)ccc1N1CCN(C2COC2)C[C@@H]1C` [Example 33, N-[5-([6-[3-(hydroxymethyl)-2-(8-oxo-5,6-dihydro-1,7-naphthyridin-7-yl)pyridin-4-yl]-4-methyl-3-oxopyrazin-2-yl]amino)-2-[(2S)-2-methyl-4-(oxetan-3-yl)piperazin-1-yl]phenyl]prop-2-enamide]: on WT BTK [3], the IC50 is > 100 nM.
As for `C=CC(=O)Nc1cc(Nc2nc(-c3ccnc(N4CCc5c(sc6c5CC(C)(C)C6)C4=O)c3CO)cn(C)c2=O)ccc1N1CCN(C2COC2)C[C@@H]1C` [Example 34, N-(5-[[6-(2-[4,4-dimethyl-9-oxo-7-thia-10-azatricyclo[6.4.0.0^[2,6]]dodeca-1(8),2(6)-dien-10-yl]-3-(hydroxymethyl)pyridin-4-yl)-4-methyl-3-oxopyrazin-2-yl]amino]-2-[(2S)-2-methyl-4-(oxetan-3-yl)piperazin-1-yl]phenyl)prop-2-enamide], the “Recovery after 24 h dialysis” value at WT BTK [1] (0.003 mM compound pre-incubated with 2 nM BTK for 2 hr, dialyzed 24 hr against buffer with 40 mM ATP, BTK activity vs non-dialyzed samples) is ~1%. Moreover, the “Conclusion (WT BTK)” value at WT BTK [1] is given as “Irreversible/covalent inhibition”. The IC50 at WT BTK [3] was 0.073 nM; at C481S BTK [4], 0.46 nM.
For the compound `C[C@H]1CN(C2COC2)CCN1c1ccc(Nc2cc(-c3ccnc(N4CCn5c(cc6c5CC(C)(C)C6)C4=O)c3CO)cn(C)c2=O)nc1` [GDC-0853, reference compound], the “Conclusion (WT BTK)” value at WT BTK [1] is on record as “reversible WT BTK inhibitor”. The pancreatic toxicity entry in series [5] is recorded as “leads to pancreatic toxicity”. The tolerability entry in series [6] is listed as “well-tolerated”.
